Key:
[1] = molecular target: T1, Human serum albumin (HSA) (Homo sapiens, UniProt P02768); assay: Binding constants by quenching of HSA tryptophan fluorescence
T1 construct: Fatty acid free HSA and warfarin sodium were purchased from Sigma-Aldrich; purchased Sigma-Aldrich (St. Louis, MO, USA)
Protocol: In all experiments, the final co-solvent concentration was held below 5%. This was done to prevent conformational changes of HSA due to changes in dielectric constant of the solvent.
Steady-state fluorescence was recorded using a thermostated Safas Xenius fluorometer (Safas Monaco, Monaco) with an integrated stirrer. All studies were performed at 25 ± 1 °C using 10 nm excitation and emission slit widths. […] Measurements were performed in duplicate.
A stock solution of a single ligand was gradually added via syringe to a 2 mL of a 6 μM HSA solution placed in a quartz cell. Measurements were conducted at the excitation wavelength of 295 nm and emission was recorded in the 310–400 nm range enabling calculations of corresponding binding constants. […] Binding constants were determined according to Dufour and Dangles. A Scatchard analysis was performed assuming n identical binding sites on HSA. Values for binding constant (K), molar fluorescence intensity of the complex (f), and the stoichiometric coefficient (n) were estimated by fitting the F vs. Lt curves against Equations (1) and (2) using a least-square regression program Scientist (MicroMath, Salt Lake City, UT, USA), where F is fluorescence intensity, [L] the free ligand concentration, [Lt] the total ligand concentration, and c the total albumin concentration. […] In all cases, the inner filter effect was taken into account by using absorption of free ligands at excitation and emission wavelengths (εex and εem, respectively) (Equation (3)), where Fcorr is the fluorescence corrected for the inner filter effect, F0 is the measured fluorescence, ε is the sum of εex and εem, l = 0.65 is the optical path and c is the flavonoid concentration. (1) Fcorr=fcnK[L]/1+K[L] (2) [Lt]=[L](1+ncK/1+K[L]) (3) F0=Fcorr×10^−εlc

[2] = Flavonoid fluorescence in buffer solution without HSA
[3] = molecular target: Human serum albumin (HSA) IIA binding site (Homo sapiens, UniProt P02768); assay: Flavonoid fluorescence (excitation 450 nm) on HSA pre-saturated with warfarin (simultaneous binding / displacement)
Protocol: HSA was freshly dissolved in Dulbecco’s phosphate-buffered saline pH 7.4 (137 mM sodium chloride, 2.7 mM potassium chloride, 8.1 mM disodium hydrogen phosphate, 1.47 mM potassium dihydrogen phosphate) immediately before measurements. […]. In all experiments, the final co-solvent concentration was held below 5%. This was done to prevent conformational changes of HSA due to changes in dielectric constant of the solvent.
Steady-state fluorescence was recorded using a thermostated Safas Xenius fluorometer (Safas Monaco, Monaco) with an integrated stirrer. All studies were performed at 25 ± 1 °C using 10 nm excitation and emission slit widths. […] Higher concentrations of HSA and ligands were not used due to poor solubility of ligands and high influence of ligand absorption. Measurements were performed in duplicate.

[4] = HSA 0-92% saturated with warfarin

Sequence of Human serum albumin (HSA) IIA binding site (P02768 25-609): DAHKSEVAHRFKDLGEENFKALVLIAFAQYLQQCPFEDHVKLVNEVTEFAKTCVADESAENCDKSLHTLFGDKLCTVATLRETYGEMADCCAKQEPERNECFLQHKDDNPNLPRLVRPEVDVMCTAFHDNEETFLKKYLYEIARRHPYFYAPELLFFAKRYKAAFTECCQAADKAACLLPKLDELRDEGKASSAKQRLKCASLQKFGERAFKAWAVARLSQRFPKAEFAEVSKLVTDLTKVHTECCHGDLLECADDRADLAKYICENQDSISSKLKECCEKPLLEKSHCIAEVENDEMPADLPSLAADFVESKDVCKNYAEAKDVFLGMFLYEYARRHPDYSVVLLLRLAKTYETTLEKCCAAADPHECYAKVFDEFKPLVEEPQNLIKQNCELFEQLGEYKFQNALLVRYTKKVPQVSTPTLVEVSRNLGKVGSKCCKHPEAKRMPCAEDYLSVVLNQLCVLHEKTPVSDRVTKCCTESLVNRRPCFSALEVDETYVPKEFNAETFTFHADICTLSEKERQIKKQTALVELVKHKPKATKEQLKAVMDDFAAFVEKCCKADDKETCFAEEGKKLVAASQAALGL
T1 sequence (P02768 25-609): as above

Structure (SMILES): O=c1cc(-c2ccc(O)c(O)c2)oc2cc(O)cc(O)c12 [Luteolin]
- Kd [1]: 8.2 µM
- Absolute fluorescence intensity ([2]; flavonoid 2,00 uM): 0,5984
- Absolute fluorescence intensity ([2]; flavonoid 4,00 uM): 0,7341
- Absolute fluorescence intensity ([2]; flavonoid 7,99 uM): 0,8094
- Absolute fluorescence intensity ([2]; flavonoid 15,97 uM): 0,8481
- Absolute fluorescence intensity ([2]; flavonoid 31,87 uM): 1,0538
- Absolute fluorescence intensity ([2]; flavonoid 47,71 uM): 1,3400
- Absolute fluorescence intensity ([2]; flavonoid 63,49 uM): 1,5045
- Absolute fluorescence intensity ([2]; flavonoid 79,21 uM): 1,7483
- Absolute fluorescence intensity ([2]; flavonoid 118,23 uM): 2,2774
- Absolute fluorescence intensity ([2]; flavonoid 156,86 uM): 2,8851
- Effect of warfarin on flavonoid Fmax (maximum fluorescence) [3, 4]: no noticeable change
- Effect of warfarin on flavonoid cmax (concentration needed to achieve Fmax) [3, 4]: no noticeable change
- Absolute fluorescence intensity ([3]; flavonoid 2,00 uM, 0% occupied HSA): 3,5310
- Absolute fluorescence intensity ([3]; flavonoid 2,00 uM, 22% occupied HSA): 3,0516
- Absolute fluorescence intensity ([3]; flavonoid 2,00 uM, 38% occupied HSA): 3,2663
- Absolute fluorescence intensity ([3]; flavonoid 2,00 uM, 63% occupied HSA): 2,9688
- Absolute fluorescence intensity ([3]; flavonoid 2,00 uM, 92% occupied HSA): 3,0838
- Absolute fluorescence intensity ([3]; flavonoid 4,00 uM, 0% occupied HSA): 5,6541
- Absolute fluorescence intensity ([3]; flavonoid 4,00 uM, 22% occupied HSA): 5,0287
- Absolute fluorescence intensity ([3]; flavonoid 4,00 uM, 38% occupied HSA): 5,0961
- Absolute fluorescence intensity ([3]; flavonoid 4,00 uM, 63% occupied HSA): 4,7527
- Absolute fluorescence intensity ([3]; flavonoid 4,00 uM, 92% occupied HSA): 4,7445
- Absolute fluorescence intensity ([3]; flavonoid 6,00 uM, 0% occupied HSA): 7,6599
- Absolute fluorescence intensity ([3]; flavonoid 6,00 uM, 22% occupied HSA): 6,8528
- Absolute fluorescence intensity ([3]; flavonoid 6,00 uM, 38% occupied HSA): 6,8106
- Absolute fluorescence intensity ([3]; flavonoid 6,00 uM, 63% occupied HSA): 6,3873
- Absolute fluorescence intensity ([3]; flavonoid 6,00 uM, 92% occupied HSA): 6,5159
- Absolute fluorescence intensity ([3]; flavonoid 7,99 uM, 0% occupied HSA): 9,4059
- Absolute fluorescence intensity ([3]; flavonoid 7,99 uM, 22% occupied HSA): 8,8217
- Absolute fluorescence intensity ([3]; flavonoid 7,99 uM, 38% occupied HSA): 8,5002
- Absolute fluorescence intensity ([3]; flavonoid 7,99 uM, 63% occupied HSA): 7,8443
- Absolute fluorescence intensity ([3]; flavonoid 7,99 uM, 92% occupied HSA): 8,1746
- Absolute fluorescence intensity ([3]; flavonoid 11,98 uM, 0% occupied HSA): 11,5397
- Absolute fluorescence intensity ([3]; flavonoid 11,98 uM, 22% occupied HSA): 11,3861
- Absolute fluorescence intensity ([3]; flavonoid 11,98 uM, 38% occupied HSA): 11,3711
- Absolute fluorescence intensity ([3]; flavonoid 11,98 uM, 63% occupied HSA): 10,9648
- Absolute fluorescence intensity ([3]; flavonoid 11,98 uM, 92% occupied HSA): 10,4774
- Absolute fluorescence intensity ([3]; flavonoid 15,97 uM, 0% occupied HSA): 14,0865
- Absolute fluorescence intensity ([3]; flavonoid 15,97 uM, 22% occupied HSA): 14,1260
- Absolute fluorescence intensity ([3]; flavonoid 15,97 uM, 38% occupied HSA): 13,9507
- Absolute fluorescence intensity ([3]; flavonoid 15,97 uM, 63% occupied HSA): 13,0693
- Absolute fluorescence intensity ([3]; flavonoid 15,97 uM, 92% occupied HSA): 12,9194
- Absolute fluorescence intensity ([3]; flavonoid 23,93 uM, 0% occupied HSA): 17,9442
- Absolute fluorescence intensity ([3]; flavonoid 23,93 uM, 22% occupied HSA): 17,8085
- Absolute fluorescence intensity ([3]; flavonoid 23,93 uM, 38% occupied HSA): 17,8530
- Absolute fluorescence intensity ([3]; flavonoid 23,93 uM, 63% occupied HSA): 17,0150
- Absolute fluorescence intensity ([3]; flavonoid 23,93 uM, 92% occupied HSA): 16,3518
- Absolute fluorescence intensity ([3]; flavonoid 31,87 uM, 0% occupied HSA): 20,8667
- Absolute fluorescence intensity ([3]; flavonoid 31,87 uM, 22% occupied HSA): 20,4964
- Absolute fluorescence intensity ([3]; flavonoid 31,87 uM, 38% occupied HSA): 20,5131
- Absolute fluorescence intensity ([3]; flavonoid 31,87 uM, 63% occupied HSA): 19,6701
- Absolute fluorescence intensity ([3]; flavonoid 31,87 uM, 92% occupied HSA): 19,1278
- Absolute fluorescence intensity ([3]; flavonoid 39,80 uM, 0% occupied HSA): 22,9301
- Absolute fluorescence intensity ([3]; flavonoid 39,80 uM, 22% occupied HSA): 22,5924
- Absolute fluorescence intensity ([3]; flavonoid 39,80 uM, 38% occupied HSA): 22,2082
- Absolute fluorescence intensity ([3]; flavonoid 39,80 uM, 63% occupied HSA): 21,6524
- Absolute fluorescence intensity ([3]; flavonoid 39,80 uM, 92% occupied HSA): 20,8642
- Absolute fluorescence intensity ([3]; flavonoid 47,71 uM, 0% occupied HSA): 24,5206
- Absolute fluorescence intensity ([3]; flavonoid 47,71 uM, 22% occupied HSA): 23,8063
- Absolute fluorescence intensity ([3]; flavonoid 47,71 uM, 38% occupied HSA): 23,5737
- Absolute fluorescence intensity ([3]; flavonoid 47,71 uM, 63% occupied HSA): 23,1678
- Absolute fluorescence intensity ([3]; flavonoid 47,71 uM, 92% occupied HSA): 22,5713
- Absolute fluorescence intensity ([3]; flavonoid 63,49 uM, 0% occupied HSA): 26,4505
- Absolute fluorescence intensity ([3]; flavonoid 63,49 uM, 22% occupied HSA): 25,9034
- Absolute fluorescence intensity ([3]; flavonoid 63,49 uM, 38% occupied HSA): 25,4318
- Absolute fluorescence intensity ([3]; flavonoid 63,49 uM, 63% occupied HSA): 24,8572
- Absolute fluorescence intensity ([3]; flavonoid 63,49 uM, 92% occupied HSA): 24,6423
- Absolute fluorescence intensity ([3]; flavonoid 79,21 uM, 0% occupied HSA): 26,9488
- Absolute fluorescence intensity ([3]; flavonoid 79,21 uM, 22% occupied HSA): 26,5002
- Absolute fluorescence intensity ([3]; flavonoid 79,21 uM, 38% occupied HSA): 26,5136
- Absolute fluorescence intensity ([3]; flavonoid 79,21 uM, 63% occupied HSA): 25,8191
- Absolute fluorescence intensity ([3]; flavonoid 79,21 uM, 92% occupied HSA): 25,3909
- Absolute fluorescence intensity ([3]; flavonoid 98,77 uM, 0% occupied HSA): 27,2939
- Absolute fluorescence intensity ([3]; flavonoid 98,77 uM, 22% occupied HSA): 27,2804
- Absolute fluorescence intensity ([3]; flavonoid 98,77 uM, 38% occupied HSA): 26,9116
- Absolute fluorescence intensity ([3]; flavonoid 98,77 uM, 63% occupied HSA): 26,1311
- Absolute fluorescence intensity ([3]; flavonoid 98,77 uM, 92% occupied HSA): 26,2198
- Absolute fluorescence intensity ([3]; flavonoid 118,23 uM, 0% occupied HSA): 27,1078
- Absolute fluorescence intensity ([3]; flavonoid 118,23 uM, 22% occupied HSA): 27,1338
- Absolute fluorescence intensity ([3]; flavonoid 118,23 uM, 38% occupied HSA): 26,9198
- Absolute fluorescence intensity ([3]; flavonoid 118,23 uM, 63% occupied HSA): 26,3501
- Absolute fluorescence intensity ([3]; flavonoid 118,23 uM, 92% occupied HSA): 26,3929
- Absolute fluorescence intensity ([3]; flavonoid 137,59 uM, 0% occupied HSA): 26,3217
- Absolute fluorescence intensity ([3]; flavonoid 137,59 uM, 22% occupied HSA): 26,7053
- Absolute fluorescence intensity ([3]; flavonoid 137,59 uM, 38% occupied HSA): 26,6416
- Absolute fluorescence intensity ([3]; flavonoid 137,59 uM, 63% occupied HSA): 26,1054
- Absolute fluorescence intensity ([3]; flavonoid 137,59 uM, 92% occupied HSA): 26,3918
- Absolute fluorescence intensity ([3]; flavonoid 156,86 uM, 0% occupied HSA): 25,8093
- Absolute fluorescence intensity ([3]; flavonoid 156,86 uM, 22% occupied HSA): 26,0626
- Absolute fluorescence intensity ([3]; flavonoid 156,86 uM, 38% occupied HSA): 26,1509
- Absolute fluorescence intensity ([3]; flavonoid 156,86 uM, 63% occupied HSA): 25,5239
- Absolute fluorescence intensity ([3]; flavonoid 156,86 uM, 92% occupied HSA): 25,7773
